Results reported in US11312712B2, “Azabenzimidazoles and their use as AMPA receptor modulators” (Janssen Pharmaceutica NV, priority 2015, dated 2022).

These compounds were tested against GluA1o-γ8 (GRIA1o-CACNG8 fusion construct) (Homo sapiens (Human), UniProt P42261+Q8WXS5) (assay: Calcium flux assay (FLIPR), inhibition of TARP γ8 dependent AMPA receptor activity). Details: GluA1o-γ8 (GRIA1o-CACNG8 fusion) in HEK293 cells, calcium flux after 15 μM glutamate.
GluA1o-γ8 (GRIA1o-CACNG8 fusion construct), sequence (P42261 other isoform, or with tags, fused parts or gaps): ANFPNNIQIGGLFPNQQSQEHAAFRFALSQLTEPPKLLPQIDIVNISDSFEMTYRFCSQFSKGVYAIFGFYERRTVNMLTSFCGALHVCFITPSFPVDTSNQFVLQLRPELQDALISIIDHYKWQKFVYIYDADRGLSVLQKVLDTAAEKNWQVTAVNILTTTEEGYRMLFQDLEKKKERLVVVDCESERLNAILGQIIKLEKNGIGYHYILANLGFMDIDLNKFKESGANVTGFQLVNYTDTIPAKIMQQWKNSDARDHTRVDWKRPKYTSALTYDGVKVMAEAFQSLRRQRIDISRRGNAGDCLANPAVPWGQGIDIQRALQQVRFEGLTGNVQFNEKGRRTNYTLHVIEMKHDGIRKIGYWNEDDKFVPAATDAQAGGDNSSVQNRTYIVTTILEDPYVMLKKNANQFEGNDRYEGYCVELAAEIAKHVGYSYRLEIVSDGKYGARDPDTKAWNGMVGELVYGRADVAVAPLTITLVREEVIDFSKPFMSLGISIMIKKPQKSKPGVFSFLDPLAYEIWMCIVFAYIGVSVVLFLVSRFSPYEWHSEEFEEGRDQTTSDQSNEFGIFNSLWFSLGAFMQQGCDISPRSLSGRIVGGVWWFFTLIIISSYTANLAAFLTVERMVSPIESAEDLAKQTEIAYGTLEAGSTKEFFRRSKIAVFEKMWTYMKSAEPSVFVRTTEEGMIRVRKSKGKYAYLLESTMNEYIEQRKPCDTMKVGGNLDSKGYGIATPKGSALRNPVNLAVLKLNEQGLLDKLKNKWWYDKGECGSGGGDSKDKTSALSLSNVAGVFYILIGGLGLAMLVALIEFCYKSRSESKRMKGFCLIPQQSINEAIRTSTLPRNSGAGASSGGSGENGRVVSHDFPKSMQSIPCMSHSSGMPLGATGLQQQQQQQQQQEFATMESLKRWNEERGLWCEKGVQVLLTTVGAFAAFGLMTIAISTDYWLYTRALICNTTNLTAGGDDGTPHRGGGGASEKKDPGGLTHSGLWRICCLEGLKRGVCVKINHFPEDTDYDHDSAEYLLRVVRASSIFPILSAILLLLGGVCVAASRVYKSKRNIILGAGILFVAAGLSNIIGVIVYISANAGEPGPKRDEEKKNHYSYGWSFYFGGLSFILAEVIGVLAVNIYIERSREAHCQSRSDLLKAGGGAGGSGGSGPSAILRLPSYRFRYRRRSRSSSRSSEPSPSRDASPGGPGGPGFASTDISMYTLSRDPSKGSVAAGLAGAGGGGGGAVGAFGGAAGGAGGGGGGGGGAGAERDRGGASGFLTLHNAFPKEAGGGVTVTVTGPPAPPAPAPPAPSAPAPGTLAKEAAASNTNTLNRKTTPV
Format: cell-based
Procedure, shortened: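 Glutamate (15 μM) was added to a stable HEK293 line carrying the GluA1o–γ8 fusion, which had been preincubated with compound and calcium dye in HEPES buffer, pH 7.4. Normalized FLIPR fluorescence (no compound vs 10 μM CP465022) was fitted with four parameters; pIC50 is the midpoint's negative log.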
An IC50 of 10000 nM was found for `O=C(c1nc2ccc(C(F)(F)F)nc2n1-c1ccc2[nH]ncc2c1)N1CCCC1` [Example 173, [3-(1H-Indazol-5-yl)-5-(trifluoromethyl)imidazo[4,5-b]pyridin-2-yl]-pyrrolidin-1-yl-methanone] in this work. An IC50 of 10000 nM was found for `FC(F)(F)c1ccc(-c2nc3cccnc3n2-c2ccc3[nH]ncc3c2)cc1` [Example 176, 3-(1H-Indazol-5-yl)-2-[4-(trifluoromethyl)phenyl]imidazo[4,5-b]pyridine] in this work. An IC50 of 12600 nM was found for `FC(F)(F)Oc1ccc(-c2nc3cccnc3n2-c2ccc3[nH]ncc3c2)cc1` [Example 177, 3-(1H-Indazol-5-yl)-2-[4-(trifluoromethoxy)phenyl]imidazo[4,5-b]pyridine] in this work. An IC50 of 3160 nM was found for `O=C1Cc2cc(-n3c(-c4ccc(C(F)(F)F)cc4)nc4cccnc43)ccc2N1` [Example 178, 5-[2-[4-(Trifluoromethyl)phenyl]imidazo[4,5-b]pyridin-3-yl]indolin-2-one] in this work. An IC50 of 3160 nM was found for `CC(C)(C)OC(=O)N1CC(c2nc3ccc(C(F)(F)F)nc3n2-c2ccc3c(c2)CC(=O)N3)C1` [Example 179, tert-Butyl 3-[3-(2-oxoindolin-5-yl)-5-(trifluoromethyl)imidazo[4,5-b]pyridin-2-yl]azetidine-1-carboxylate] in this work. An IC50 of 2000 nM was found for `O=C1Cc2cc(-n3c(C4CNC4)nc4ccc(C(F)(F)F)nc43)ccc2N1` [Example 180, 5-[2-(Azetidin-3-yl)-5-(trifluoromethyl)imidazo[4,5-b]pyridin-3-yl]indolin-2-one] in this work. An IC50 of 2510 nM was found for `Cc1ccc2nc(C)n(-c3ccc4c(c3)CC(=O)N4)c2n1` [Example 181, 5-(2,5-Dimethylimidazo[4,5-b]pyridin-3-yl)indolin-2-one] in this work. An IC50 of 2000 nM was found for `COC(=O)CCc1nc2ccc(C(F)(F)F)nc2n1-c1ccc2c(c1)CC(=O)N2` [Example 183, Methyl 3-[3-(2-oxoindolin-5-yl)-5-(trifluoromethyl)imidazo[4,5-b]pyridin-2-yl]propanoate] in this work. An IC50 of 0.01 nM was found for `CC(C)c1nc2ccc(C(F)(F)F)nc2n1-c1cc(Br)c2[nH]ncc2c1` [Example 184, 3-(7-Bromo-1H-indazol-5-yl)-2-isopropyl-5-(trifluoromethyl)imidazo[4,5-b]pyridine] in this work. An IC50 of 100 nM was found for `Cn1c(=O)sc2cc(-n3c(C4CCC4)nc4ccc(C(F)(F)F)nc43)ccc21` [Example 185, 6-(2-Cyclobutyl-5-(trifluoromethyl)-3H-imidazo[4,5-b]pyridin-3-yl)-3-methylbenzo[d]thiazol-2(3H)-one] in this work. An IC50 of 0.01 nM was found for `FC(F)(F)c1ccc2nc(C(F)(F)F)n(-c3cc(Br)c4[nH]ncc4c3)c2n1` [Example 187, 3-(7-Bromo-1H-indazol-5-yl)-2,5-bis(trifluoromethyl)imidazo[4,5-b]pyridine] in this work. An IC50 of 316 nM was found for `FC(F)(F)c1ccc2nc(C(F)(F)F)n(-c3cc(-c4ccccc4)c4[nH]ncc4c3)c2n1` [Example 188, 3-(7-Phenyl-1H-indazol-5-yl)-2,5-bis(trifluoromethyl)-3H-imidazo[4,5-b]pyridine] in this work. An IC50 of 0.0398 nM was found for `C=Cc1cc(-n2c(C(F)(F)F)nc3ccc(C(F)(F)F)nc32)cc2cn[nH]c12` [Example 189, 2,5-Bis(trifluoromethyl)-3-(7-vinyl-1H-indazol-5-yl)-3H-imidazo[4,5-b]pyridine] in this work. An IC50 of 316 nM was found for `O=c1[nH]c2ccc(-n3cnc4ccc(C(F)(F)F)nc43)cc2s1` [Example 190, 6-(5-(Trifluoromethyl)-3H-imidazo[4,5-b]pyridin-3-yl)benzo[d]thiazol-2(3H)-one] in this work. An IC50 of 3.98 nM was found for `CC(C)c1nc2ccc(C(F)(F)F)nc2n1-c1ccc2[nH]nc(F)c2c1` [Example 191, 3-(3-Fluoro-1H-indazol-5-yl)-2-isopropyl-5-(trifluoromethyl)imidazo[4,5-b]pyridine] in this work. An IC50 of 2.51 nM was found for `FC(F)(F)c1nc2ccc(Cl)nc2n1-c1ccc2[nH]ncc2c1` [Example 192, 5-Chloro-3-(1H-indazol-5-yl)-2-(trifluoromethyl)imidazo[4,5-b]pyridine] in this work. An IC50 of 1.58 nM was found for `CCc1ccc2nc(C(F)(F)F)n(-c3ccc4[nH]ncc4c3)c2n1` [Example 193, 5-Ethyl-3-(1H-indazol-5-yl)-2-(trifluoromethyl)imidazo[4,5-b]pyridine] in this work. An IC50 of 20 nM was found for `Cc1cc(-n2cnc3ccc(C(F)(F)F)nc32)cc2cn[nH]c12` [Example 194, 3-(7-Methyl-1H-indazol-5-yl)-5-(trifluoromethyl)imidazo[4,5-b]pyridine] in this work. An IC50 of 0.0126 nM was found for `Cc1cc(-n2c(-c3ccc(F)cc3)nc3ccc(C(F)(F)F)nc32)cc2cn[nH]c12` [Example 195, 2-(4-Fluorophenyl)-3-(7-methyl-1H-indazol-5-yl)-5-(trifluoromethyl)imidazo[4,5-b]pyridine] in this work. An IC50 of 25.1 nM was found for `CCOc1nc2ccc(C(F)(F)F)nc2n1-c1ccc2[nH]nc(F)c2c1` [Example 196, 2-Ethoxy-3-(3-fluoro-1H-indazol-5-yl)-5-(trifluoromethyl)imidazo[4,5-b]pyridine] in this work. An IC50 of 6.31 nM was found for `Fc1n[nH]c2ccc(-n3c(C4CC4)nc4ccc(C(F)(F)F)nc43)cc12` [Example 197, 2-Cyclopropyl-3-(3-fluoro-1H-indazol-5-yl)-5-(trifluoromethyl)imidazo[4,5-b]pyridine] in this work. An IC50 of 0.0316 nM was found for `Cc1cc(-n2c(C(C)C)nc3ccc(C(F)(F)F)nc32)cc2cn[nH]c12` [Example 198, 2-Isopropyl-3-(7-methyl-1H-indazol-5-yl)-5-(trifluoromethyl)imidazo[4,5-b]pyridine] in this work. An IC50 of 2 nM was found for `FC(F)(F)c1nc2cccnc2n1-c1cc(Cl)c2[nH]ncc2c1` [Example 199, 3-(7-Chloro-1H-indazol-5-yl)-2-(trifluoromethyl)imidazo[4,5-b]pyridine] in this work. An IC50 of 6.31 nM was found for `CC(C)c1nc2cccnc2n1-c1cc(Cl)c2[nH]ncc2c1` [Example 200, 3-(7-Chloro-1H-indazol-5-yl)-2-isopropyl-imidazo[4,5-b]pyridine] in this work. An IC50 of 100 nM was found for `Cc1ccnc2c1nc(C(F)(F)F)n2-c1ccc2[nH]ncc2c1` [Example 201, 3-(1H-indazol-5-yl)-7-methyl-2-(trifluoromethyl)imidazo[4,5-b]pyridine] in this work. An IC50 of 0.631 nM was found for `Cc1ccnc2c1nc(C(F)(F)F)n2-c1cc(Cl)c2[nH]ncc2c1` [Example 202, 3-(7-Chloro-1H-indazol-5-yl)-7-methyl-2-(trifluoromethyl)imidazo[4,5-b]pyridine] in this work. An IC50 of 5.01 nM was found for `Cc1ccnc2c1nc(C(F)(F)F)n2-c1cc(C)c2[nH]ncc2c1` [Example 203, 7-Methyl-3-(7-methyl-1H-indazol-5-yl)-2-(trifluoromethyl)imidazo[4,5-b]pyridine] in this work. An IC50 of 12.6 nM was found for `FC(F)(F)c1ccc2nc(C(F)(F)F)n(-c3cnc4[nH]ncc4c3)c2n1` [Example 204, 3-(1H-pyrazolo[3,4-b]pyridin-5-yl)-2,5-bis(trifluoromethyl)imidazo[4,5-b]pyridine] in this work. An IC50 of 398 nM was found for `[O-][n+]1cc(-n2c(C(F)(F)F)nc3ccc(C(F)(F)F)nc32)cc2cn[nH]c21` [Example 205, 3-(7-Oxido-1H-pyrazolo[3,4-b]pyridin-7-ium-5-yl)-2,5-bis(trifluoromethyl)imidazo[4,5-b]pyridine] in this work. An IC50 of 0.316 nM was found for `O=c1[nH]c2ccc(-n3c(C(F)(F)F)nc4ccc(C(F)F)nc43)cc2s1` [Example 206, 6-[5-(difluoromethyl)-2-(trifluoromethyl)imidazo[4,5-b]pyridin-3-yl]-3H-1,3-benzothiazol-2-one] in this work.
